Measurements reported in patent publication US20240207302A1, “ANTIVIRAL COMPOUNDS, METHODS FOR THE MANUFACTURING OF COMPOUNDS, ANTIVIRAL PHARMACEUTICAL COMPOSITION, USE OF THE COMPOUNDS AND METHOD FOR THE ORAL TREATMENT OF CORONAVIRUS INFECTION AND RELATED DISEASES THEREOF” (priority 2021, published 2024).
Marks after values point to notes of the source that are not given here.

How the values were obtained:
[1] = system: SARS-COV-2; test: SARS-COV-2 viral RNA synthesis in Vero cells (real time RT-PCR); assay type: cell-based; conditions: Severe acute respiratory syndrome coronavirus 2; Vero (MOI 0.01 24 h); read-out: EC50
[2] = system: SARS-COV-2; test: SARS-COV-2 viral RNA synthesis in HuH-7 cells (real time RT-PCR); assay type: cell-based
[3] = system: murine hepatitis virus (MHV); assay type: in vivo, mice; conditions: DAC 60 mg/kg/day
[4] = Repeated dose 28-day oral toxicity study; assay type: in vivo, mice
Protocol: FIG. 10A and 10B. […] Body weight gain in weeks (A) in males and (B) in females by 4 weeks. […] Body weight was measured once a week.
These experiments were conducted in compliance with the GLP principles. Morbidity, mortality, body weight in male (FIG. 10A) and female (FIG. 10B), food consumption as well as general and detailed clinical signs were evaluated. In the last week, urine samples from all animals were collected for analysis. At necropsy, blood samples were collected for hematological, biochemical and coagulation analyses, followed by tissue and organ collection for macroscopic and histopathological analyses.

[5] = female mice, 10 mg/kg oral once daily for 28 days
[6] = female mice, 80 mg/kg oral once daily for 28 days
[7] = female mice, 250 mg/kg oral once daily for 28 days
[8] = female mice, 10 mg/kg daily, 28 days
[9] = female mice, 80 mg/kg daily, 28 days
[10] = female mice, 250 mg/kg daily, 28 days
[11] = male mice, 10 mg/kg daily, 28 days
[12] = male mice, 80 mg/kg daily, 28 days
[13] = male mice, 250 mg/kg daily, 28 days

Q: Which results are given for `c1coc(CNc2ncnc3[nH]cnc23)c1` [MB-905, kinetin]?
A: EC50 [1]: 5000 nM; EC50 ([2]; Severe acute respiratory syndrome coronavirus 2, Huh-7 (MOI 0.1 48 h), read-out: EC50): 100 nM; anti-coronavirus activity with simultaneous adenine ([2]; huh-7, adenine at 10 μM): prevented; anti-coronavirus activity (SARS-COV-2 replication) ([2]; huh-7, treatment just after inoculation): concentration dependent inhibition; weight recovery ([3]; MB-905 250 mg/kg/day): did not allow complete weight recovery; inflammatory cells in the respiratory tract ([3]; day 11, MB-905 250 mg/kg/day): less inflammatory cells; mortality ([3]; oral gavage daily from day 2, MB-905 250 mg/kg/day): reduced the mice mortality by half; NOAEL at 28 days ([4]; both sexes, CD1, mouse, in vivo, mice, oral, 28-day study): 80 mg/kg; ALB (Albumin), Mean [4, 5]: 2.67 g/dL; ALT (Alanine aminotransferase), Mean [4, 5]: 43.72 U/L; AST (Aspartate Aminotransferase), Mean [4, 5]: 91.88 U/L; BT (Total Bilirubin), Mean [4, 5]: 0.39 mg/dL; CA (Calcium), Mean [4, 5]: 9.77 mg/dL; CRE (Creatinine), Mean [4, 5]: 0.29 mg/dL; CT (Total cholesterol), Mean [4, 5]: 98.17 mg/dL; FA (Alkaline phosphatase), Mean [4, 5]: 108.75 U/L; GGT (Gamma-glutamyltransferase), Mean [4, 5]: 0.00 U/L; GLUCOSE, Mean [4, 5]: 118.56 mg/dL; P (Phosphorus), Mean [4, 5]: 4.69 mg/dL; PT (Total protein), Mean [4, 5]: 5.84 g/dL; TRI (Triglycerides), Mean [4, 5]: 62.00 mg/dL; UREIA, Mean [4, 5]: 54.93 mg/dL; ALB (Albumin), Mean [4, 6]: 2.91 g/dL; ALT (Alanine aminotransferase), Mean [4, 6]: 52.50 U/L; AST (Aspartate Aminotransferase), Mean [4, 6]: 119.73 U/L; BT (Total Bilirubin), Mean [4, 6]: 0.41 mg/dL; CA (Calcium), Mean [4, 6]: 8.34 mg/dL; CRE (Creatinine), Mean [4, 6]: 0.25 mg/dL; CT (Total cholesterol), Mean [4, 6]: 119.86 mg/dL; FA (Alkaline phosphatase), Mean [4, 6]: 77.20 U/L; GGT (Gamma-glutamyltransferase), Mean [4, 6]: 0.00 U/L; GLUCOSE, Mean [4, 6]: 138.04 mg/dL; P (Phosphorus), Mean [4, 6]: 5.47 mg/dL; PT (Total protein), Mean [4, 6]: 5.99 g/dL; TRI (Triglycerides), Mean [4, 6]: 92.90 mg/dL; UREIA, Mean [4, 6]: 44.12 mg/dL; ALB (Albumin), Mean [4, 7]: 3.29 g/dL; ALT (Alanine aminotransferase), Mean [4, 7]: 44.84 U/L; AST (Aspartate Aminotransferase), Mean [4, 7]: 127.67 U/L; BT (Total Bilirubin), Mean [4, 7]: 0.34 mg/dL; CA (Calcium), Mean [4, 7]: 10.26 mg/dL; CRE (Creatinine), Mean [4, 7]: 0.30 mg/dL; CT (Total cholesterol), Mean [4, 7]: 126.67 mg/dL; FA (Alkaline phosphatase), Mean [4, 7]: 80.40 U/L; GGT (Gamma-glutamyltransferase), Mean [4, 7]: 0.20 U/L; GLUCOSE, Mean [4, 7]: 135.84 mg/dL; P (Phosphorus), Mean [4, 7]: 5.44 mg/dL; PT (Total protein), Mean [4, 7]: 6.79 g/dL; TRI (Triglycerides), Mean [4, 7]: 108.33 mg/dL; UREIA, Mean [4, 7]: 73.50 mg/dL; HCT [4, 8]: 40.60%; HGB [4, 8]: 13.58 g/dL; MCH [4, 8]: 17.51 pg; MCHC [4, 8]: 31.74 g/dL; MCV [4, 8]: 52.32 fL; PLT [4, 8]: 1.07322e+06 µL⁻¹; RBC [4, 8]: 7.76e+06 µL⁻¹; W-LCR [4, 8]: 36.41%; W-MCR [4, 8]: 5.03%; W-SCR [4, 8]: 57.60%; WBC [4, 8]: 1700 µL⁻¹; HCT [4, 9]: 39.78%; HGB [4, 9]: 13.31 g/dL; MCH [4, 9]: 17.50 pg; MCHC [4, 9]: 33.47 g/dL; MCV [4, 9]: 52.32 fL; PLT [4, 9]: 918000 µL⁻¹; RBC [4, 9]: 7.61e+06 µL⁻¹; W-LCR [4, 9]: 21.77%; W-MCR [4, 9]: 2.77%; W-SCR [4, 9]: 74.94 * %; WBC [4, 9]: 3590 µL⁻¹; HCT [4, 10]: 40.70%; HGB [4, 10]: 13.27 g/dL; MCH [4, 10]: 17.46 pg; MCHC [4, 10]: 33.03 g/dL; MCV [4, 10]: 52.80 fL; PLT [4, 10]: 780330 µL⁻¹; RBC [4, 10]: 7.61e+06 µL⁻¹; W-LCR [4, 10]: 22.91%; W-MCR [4, 10]: 3.10%; W-SCR [4, 10]: 73.06%; WBC [4, 10]: 4.88* ×10^3/μL; ALT [4, 11]: 43.99 U/L; AST [4, 11]: 105.30 U/L; BT [4, 11]: 0.67 mg/dL; CA [4, 11]: 9.91 mg/dL; CRE [4, 11]: 0.37 mg/dL; CT [4, 11]: 137.00 mg/dL; FA [4, 11]: 103.67 U/L; GGT [4, 11]: 2.33 U/L; GLUCOSE [4, 11]: 127.41 mg/dL; HCT [4, 11]: 38.33%; HGB [4, 11]: 12.51 g/dL; MCH [4, 11]: 17.12 pg; MCHC [4, 11]: 32.69 g/dL; MCV [4, 11]: 52.46 fL; PLT [4, 11]: 971900 µL⁻¹; PT [4, 11]: 5.56 g/dL; RBC [4, 11]: 7.3e+06 µL⁻¹; TRI [4, 11]: 94.50 mg/dL; UREIA [4, 11]: 60.48 mg/dL; W-LCR [4, 11]: 40.81 * %; W-MCR [4, 11]: 5.41%; W-SCR [4, 11]: 51.88 * %; WBC [4, 11]: 1610 µL⁻¹; ALT [4, 12]: 69.54 U/L; AST [4, 12]: 134.48 U/L; BT [4, 12]: 0.25 mg/dL; CA [4, 12]: 9.76 mg/dL; CRE [4, 12]: 0.28 mg/dL; CT [4, 12]: 154.56 mg/dL; FA [4, 12]: 69.67 U/L; GGT [4, 12]: 0.00 U/L; GLUCOSE [4, 12]: 129.24 mg/dL; HCT [4, 12]: 38.59%; HGB [4, 12]: 12.64 g/dL; MCH [4, 12]: 17.34 pg; MCHC [4, 12]: 32.76 g/dL; MCV [4, 12]: 53.00 fL; PLT [4, 12]: 1.03444e+06 µL⁻¹; PT [4, 12]: 5.74 g/dL; RBC [4, 12]: 7.28e+06 µL⁻¹; TRI [4, 12]: 116.7 mg/dL; UREIA [4, 12]: 30.02 * mg/dL; W-LCR [4, 12]: 16.37 * %; W-MCR [4, 12]: 3.36 * %; W-SCR [4, 12]: 79.52 * %; WBC [4, 12]: 4700 µL⁻¹; ALT [4, 13]: 57.17 U/L; AST [4, 13]: 124.78 U/L; BT [4, 13]: 0.43 mg/dL; CA [4, 13]: 10.38 mg/dL; CRE [4, 13]: 0.31 mg/dL; CT [4, 13]: 183.56 mg/dL; FA [4, 13]: 85.88 U/L; GGT [4, 13]: 0.50 U/L; GLUCOSE [4, 13]: 105.23 mg/dL; HCT [4, 13]: 40.41%; HGB [4, 13]: 13.26 g/dL; MCH [4, 13]: 17.03 pg; MCHC [4, 13]: 32.80 g/dL; MCV [4, 13]: 51.91 fL; PLT [4, 13]: 1.05633e+06 µL⁻¹; PT [4, 13]: 5.22 g/dL; RBC [4, 13]: 7.79e+06 µL⁻¹; TRI [4, 13]: 84.90 mg/dL; UREIA [4, 13]: 74.16 mg/dL; W-LCR [4, 13]: 20.89 * %; W-MCR [4, 13]: 4.17%; W-SCR [4, 13]: 74.40* %; WBC [4, 13]: 4110 µL⁻¹; histopathology, kidneys ([4]; mice, both sexes, 250 mg/kg): areas of basophilic proximal tubules and tubular dilatation; ophthalmological health ([4]; mice, either sex, 250 mg/kg): No changes; biochemical and hematological parameters ([4]; mice, male and female, 28 days, main groups): slight changes; histopathology, kidneys ([4]; mice, 10 mg/kg and 80 mg/kg, recovery group): not observed; macroscopic evaluation at necropsy ([4]; mice, 28 days): did not reveal significant changes; urine parameters (volume, specific gravity, pH, protein) ([4]; mice, 28 days, main groups): No significant changes
